Values of other authors in patent US20030236285A1, “Stabilized pharmaceutical compositions containing benzimidazole compounds” (priority 2002, published 2003).

Conditions: pH higher than 7

- rate of degradation: reduced to negligible
Compound: Cc1c(OCC(F)(F)F)ccnc1C[S+]([O-])c1nc2ccccc2[nH]1 (stereo not shown) [lansoprazole]
